# Measurements taken from ChEMBL document CHEMBL1201862, “PubChem BioAssay data set” (2004).
#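 Assay format: 96-well plates, 48-hour exposure. GI50 marks 50% less growth.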 Calls of active or inactive are those of the source. No stated cut-off is given here; in the data, active = GI50 up to about 1.1 µM and inactive = higher.
# What was measured:
# Assay in all cases: NCI-60 cell line screen, 48 h
# [1] = tested on: OVCAR-5
# [2] = tested on: ACHN
# [3] = tested on: MDA-MB-435
# [4] = tested on: RXF 393
# [5] = tested on: PC-3
# [6] = tested on: NCI/ADR-RES
# [7] = tested on: COLO 205
# [8] = tested on: SNB-19
# [9] = tested on: OVCAR-8
# [10] = tested on: SF-268
# [11] = tested on: HL-60
# [12] = tested on: SNB-75
# [13] = tested on: A498
# [14] = tested on: M14
# [15] = tested on: HCC 2998
# [16] = tested on: OVCAR-4
# [17] = tested on: NCI-H460
# [18] = tested on: CAKI-1
# [19] = tested on: OVCAR-3
# [20] = tested on: DU-145
SMILES,GI50 [1],GI50 [2],GI50 [3],GI50 [4],GI50 [5],GI50 [6],GI50 [7],GI50 [8],GI50 [9],GI50 [10],GI50 [11],GI50 [12],GI50 [13],GI50 [14],GI50 [15],GI50 [16],GI50 [17],GI50 [18],GI50 [19],GI50 [20]
CCOC(=O)C(NC(=O)Nc1ccc(Cl)c(Cl)c1)C(F)(F)F (stereo not drawn),> 100 µM (inactive),57.4 µM (inactive),87.1 µM (inactive),> 100 µM (inactive),> 100 µM (inactive),> 100 µM (inactive),> 100 µM (inactive),> 100 µM (inactive),> 100 µM (inactive),> 100 µM (inactive),> 100 µM (inactive),> 100 µM (inactive),> 100 µM (inactive),> 100 µM (inactive),> 100 µM (inactive),–,–,–,–,–
CC12CCC([C@H](N3CCOCC3)/C1=N\OCCN1CCCC1)C2(C)C (stereo partly drawn),> 100 µM (inactive),> 100 µM (inactive),–,> 100 µM (inactive),–,–,> 100 µM (inactive),> 100 µM (inactive),> 100 µM (inactive),> 100 µM (inactive),> 100 µM (inactive),> 100 µM (inactive),> 100 µM (inactive),> 100 µM (inactive),> 100 µM (inactive),> 100 µM (inactive),> 100 µM (inactive),> 100 µM (inactive),> 100 µM (inactive),–
Cc1ccc(S(=O)(=O)Nn2c(S)c(C#N)c(-c3ccc([N+](=O)[O-])cc3)c(C#N)c2=O)cc1,72.9 µM (inactive),51.5 µM (inactive),23.2 µM (inactive),39 µM (inactive),27.2 µM (inactive),33 µM (inactive),29.2 µM (inactive),–,36.6 µM (inactive),30.7 µM (inactive),–,56.5 µM (inactive),89.1 µM (inactive),35.1 µM (inactive),31.6 µM (inactive),24.7 µM (inactive),31 µM (inactive),> 100 µM (inactive),–,–
CC12CCC(=O)N1c1cccnc1N2 (stereo not drawn),> 100 µM (inactive),> 100 µM (inactive),–,> 100 µM (inactive),–,–,> 100 µM (inactive),–,> 100 µM (inactive),> 100 µM (inactive),> 100 µM (inactive),> 100 µM (inactive),> 100 µM (inactive),> 100 µM (inactive),> 100 µM (inactive),> 100 µM (inactive),> 100 µM (inactive),> 100 µM (inactive),> 100 µM (inactive),–
COc1ccc(/C(C)=N/NC(=O)c2ccncc2)c(OC)c1,–,–,–,–,–,> 10 µM (inactive),> 10 µM (inactive),–,> 10 µM (inactive),> 10 µM (inactive),> 10 µM (inactive),> 10 µM (inactive),> 10 µM (inactive),> 10 µM (inactive),> 10 µM (inactive),> 10 µM (inactive),> 10 µM (inactive),> 10 µM (inactive),–,> 10 µM (inactive)
COC1C(OC(=O)c2ccc(C)[nH]2)C(O)C(Oc2ccc3c(O)c(NC(=O)c4c[nH]c(C(=O)Nc5c(O)c6ccc(OC7OC(C)(C)C(OC)C(OC(=O)c8ccc(C)[nH]8)C7O)c(C)c6oc5=O)c4C)c(=O)oc3c2C)OC1(C)C (stereo not drawn),2.84 µM (inactive),2.53 µM (inactive),–,0.794 µM (active),–,–,1.87 µM (inactive),0.693 µM (active),2.81 µM (inactive),0.67 µM (active),1.83 µM (inactive),0.708 µM (active),1.76 µM (inactive),–,2.59 µM (inactive),2.05 µM (inactive),1.88 µM (inactive),2.75 µM (inactive),3.26 µM (inactive),–
Cc1cccc(NS(=O)(=O)c2ccc3c(c2)OCCOCCOCCOCCO3)c1,–,> 100 µM (inactive),> 100 µM (inactive),–,> 100 µM (inactive),–,> 100 µM (inactive),> 100 µM (inactive),> 100 µM (inactive),> 100 µM (inactive),> 100 µM (inactive),51.5 µM (inactive),> 100 µM (inactive),> 100 µM (inactive),> 100 µM (inactive),–,> 100 µM (inactive),> 100 µM (inactive),–,> 100 µM (inactive)
COc1cc2c([C@@H](OC(=O)c3ccccc3)c3ccc4c(c3)OCO4)nccc2c(OC)c1OC,76.9 µM (inactive),–,–,20.2 µM (inactive),–,–,78.7 µM (inactive),93.8 µM (inactive),49.5 µM (inactive),48.8 µM (inactive),16.4 µM (inactive),11.8 µM (inactive),32.2 µM (inactive),53.6 µM (inactive),92 µM (inactive),18.7 µM (inactive),54 µM (inactive),9.31 µM (inactive),25.6 µM (inactive),–
Nc1ccc2ccc(-c3ccc[nH]3)nc2n1,> 100 µM (inactive),> 100 µM (inactive),> 100 µM (inactive),> 100 µM (inactive),> 100 µM (inactive),> 100 µM (inactive),> 100 µM (inactive),> 100 µM (inactive),> 100 µM (inactive),> 100 µM (inactive),–,> 100 µM (inactive),> 100 µM (inactive),> 100 µM (inactive),> 100 µM (inactive),> 100 µM (inactive),> 100 µM (inactive),> 100 µM (inactive),> 100 µM (inactive),–
